Results published in patent US20230314454A1, “BLOOD COAGULATION TEST REAGENT, AND BLOOD COAGULATION TEST METHOD” (Thrombo Translational Research Lab Inc., priority 2020, published 2023).

Tests used:
[1] = test system: thrombin generation in control plasma; experiment: Thrombin generation test (TF/FXIa initiation reagent), DOACs spiked into control plasma; type: biochemical, human; details: DOAC added to control plasma at 18.5 ng/mL to 500 ng/mL; FIG. 2
Description: (§1) The thrombin generation initiation reagent was prepared by mixing the following reagents. The thrombin formation initiation reagent was appropriately diluted with 50 mM tris buffer solution containing 0.5% bovine serum albumin (purchased from FUJIFILM Wako Pure Chemical Corporation) and 0.15 M sodium chloride (purchased from FUJIFILM Wako Pure Chemical Corporation) (BSA/TBS, pH 7.4). • Human TF (Dade Innovin, purchased from SYSMEX CORPORATION) solution • Human FXIa (purchased from Funakoshi Co., Ltd.) solution • Synthetic phospholipids (purchased from Haematex) solution • Calcium chloride (purchased from FUJIFILM Wako Pure Chemical Corporation) solution […]
To quantify the generated thrombin, the thrombin detection reagent containing EDTA, which was a reaction stopping reagent, was then added to the plasma, followed by incubation at 37° C. for 1 minute. Since thrombin hydrolyzed the thrombin fluorogenic substrate to emit fluorescence during the incubation, the fluorescence intensity was measured using a fluorescence plate reader (excitation wavelength: 355 nm, fluorescence wavelength: 460 nm). The measured fluorescence intensity was converted into the thrombin concentration based on a standard curve constructed using a thrombin standard substance (Technothrombin TGA calibrator, purchased from Cosmo Bio Co., Ltd.). […]

[2] = test system: blood coagulant activity (clotting time); experiment: Blood coagulation tests APTT and PT-INR in plasma after taking apixaban; type: in vivo, human; details: patients #004 and #005, after taking 10 mg apixaban
Description: The coagulant activity of each of the test plasma specimen was tested using APTT and PT-INR test methods as blood coagulation tests. In both methods, the coagulant activity was determined by measuring clotting time after adding the coagulation initiation reagent into plasma specimens.

[3] = test system: thrombin generation in patient plasma; experiment: Thrombin generation test (TF/FXIa initiation reagent), apixaban spiked into patient plasma; type: biochemical, human
Description: (§2) In test, plasma specimens were prepared by centrifugation of blood that was collected using an anticoagulant citric acid. The plasma specimens were frozen at −80° C. until the test starts, and thawed at 37° C. immediately before the test, and used.
as §1
(§3) To quantify the generated thrombin, the thrombin detection reagent containing EDTA, which was a reaction stopping reagent, was then added to the plasma, followed by incubation at 37° C. for 1 minute. Since thrombin hydrolyzed the thrombin fluorogenic substrate to emit fluorescence during the incubation, the fluorescence intensity was measured using a fluorescence plate reader (excitation wavelength: 355 nm, fluorescence wavelength: 460 nm). The measured fluorescence intensity was converted into the thrombin concentration based on a standard curve constructed using a thrombin standard substance (Technothrombin TGA calibrator, purchased from Cosmo Bio Co., Ltd.). The thrombin generation in the plasma was expressed as a relative ratio (%) with respect to the thrombin generation in control plasma (Siemens control plasma N for blood coagulation test, purchased from SYSMEX CORPORATION).
To test inhibitory effect of the DOACs on thrombin generation, Test specimens were prepared by spiking rivaroxaban, apixaban, or edoxaban into plasma, and the thrombin generation in the plasma was assessed. […]

[4] = test system: thrombin generation in plasma; experiment: Thrombin generation in plasma over time after taking apixaban; type: in vivo, human; details: patients #004 and #005, 10 mg apixaban taken
Description: as §2
The thrombin generation initiation reagent was prepared by mixing the following reagents. […]
as §3, with “CORPORATION). […]” for “CORPORATION).”

Row | Compound | inhibitory effect on thrombin generation compared among the three DOACs [1] | change in blood coagulant activities measured by APTT and PT-INR [2] | effect of apixaban addition on thrombin generation in patient plasma ([3]; apixaban 125, 250 or 500 ng/mL, plasma of patients #001, #002, #003, 150 fM TF, 12.5 pM FXIa) | thrombin generation relative to control plasma ([3]; plasma of patient #003 after adding apixaban (125-500 ng/mL)) [%] | thrombin generation relative to control plasma ([3]; plasma of patients #001 and #002 after adding apixaban (125-500 ng/mL)) [%] | change in thrombin generation after taking apixaban [4]
1 | O=C(NC[C@H]1CN(c2ccc(N3CCOCC3=O)cc2)C(=O)O1)c1ccc(Cl)s1 [rivaroxaban] | strongest inhibitory effect |  |  |  |  | 
2 | COc1ccc(-n2nc(C(N)=O)c3c2C(=O)N(c2ccc(N4CCCCC4=O)cc2)CC3)cc1 [apixaban] |  | no significant alteration | suppressed thrombin generation in the plasma from the patient in a dose-dependent fashion | 25 | ≤ 5 | decreased with increase in apixaban concentrations
